NCC(CC(=O)O)c1ccc(Cl)cc1 (stereo not given)
solubility (mole fraction)
Conditions | in ethanol | in isopropanol | in methanol | in n-propanol | in propylene glycol
293.2 K | 3.25e-05 | 5.77e-05 | 0.000123 | 5.6e-05 | 0.000216
298.2 K | 4.17e-05 | 6.36e-05 | 0.000131 | 6.26e-05 | 0.000271
303.2 K | 4.87e-05 | 7.64e-05 | 0.00014 | 6.34e-05 | 0.000345
308.2 K | 5.39e-05 | 8.09e-05 | 0.000147 | 7.82e-05 | 0.000424
313.2 K | 6.09e-05 | 8.85e-05 | 0.000173 | 8.22e-05 | 0.000485
